Test results taken from article PMC12040169 (PLOS Biology, 2025).

Assay: in vitro
Conditions: human, hela cells

Row | SMILES | viability at 28.5 h, 10 µM (% viability) [%] | also measured
1 | OC(COc1cccc2c1CCCC2)CN1CCC(O)(c2ccc(Br)cc2)CC1 (stereo not shown) [CBK003584] | 72 | 
2 | Cc1ccc(N(CCc2cc(C(F)(F)F)cc(C(F)(F)F)c2)C(=O)CN)cc1NC(=O)CN(C)C [CBK003630T] | 84.5 | 
3 | COc1cccc2ccn(S(=O)(=O)c3ccsc3C(=O)O)c12 [CBK003636] | 96.1 | 
4 | CCC1CN(Cc2ccccc2)CCN1c1cncc(Cl)n1 (stereo not shown) [CBK003645] | 112 | 
5 | Oc1cc(C(F)(F)F)nc(CCc2ccc(Cl)cc2)n1 [CBK003678] | 107 | 
6 | COc1ccc(CCc2nc(C(F)(F)F)cc(=O)[nH]2)cc1 [CBK003679] | 87.3 | 
7 | Cc1ccc(S(N)(=O)=O)cc1NC(=O)c1ccc(Br)o1 [CBK003693] | 91.6 | 
8 | O=C(NCc1ccc(Cl)cc1)C1CCCN1c1nc(O)cc(C(F)(F)F)n1 (stereo not shown) [CBK003706] | 115 | 
9 | CCNC(=S)N[C@H]1CC[C@@]2(Cc3ccccc3Cl)CCN(C)[C@H]2C1 [CBK003708] | 92 | 
10 | Oc1cc(C(F)(F)F)nc(NCc2cccc3ccccc23)n1 [CBK003716] | 92.7 | 
11 | CCOC(=O)c1ccccc1NC(=O)n1ccc2c(N3CCNCC3)cccc21 [CBK003731C] | 50.8 | 
12 | CC(C)(C)c1ccc(NC(=O)n2ccc3c(N4CCNCC4)cccc32)cc1 [CBK003736C] | 27 | 
13 | CCCCc1ccc(S(=O)(=O)n2ccc3c(N4CCNCC4)cccc32)cc1 [CBK003744C] | 78.7 | 
14 | O=C(Nc1ccc(OCc2ccoc2)cc1C(=O)O)c1ccc(Cl)cc1Cl [CBK003768D] | 87.5 | 
15 | CCCCNC(=S)NC1CC[C@@]2(c3ccc(Br)cc3)CCN(C)[C@H]2C1 (stereo partly shown) [CBK003781] | 111 | 
16 | CCOC(=O)c1sc(NS(=O)(=O)c2ccc(-c3ccccc3)cc2)nc1C [CBK003784] | 106 | 
17 | O=C(Cc1ccc(NS(=O)(=O)c2cc(Cl)c(Cl)s2)nc1)N1CCOCC1 [CBK003790] | 96.5 | 
18 | OC(COc1cccc2c1CCCC2)CN1CCC(Cc2ccccc2)CC1 (stereo not shown) [CBK003829] | 94.7 | 
19 | COc1ccc(-c2cc(=O)[nH]c(N3CCN(C)CC3)n2)cc1 [CBK003849] | 90.4 | 
20 | CCCCc1cc(=O)[nH]c(N2CCOCC2)n1 [CBK003851] | 102 | 
21 | CC1CN(C(=O)OC(C)(C)C)CCN1c1nc2ccccc2nc1O (stereo not shown) [CBK003877C] | 116 | 
22 | Nc1nc2c(O)cccc2s1 [CBK003892B] | 85.6 | 
23 | CN1CCN(c2nccnc2OCC2COc3ccccc3O2)CC1 (stereo not shown) [CBK003899C] | 96.7 | 
24 | NCc1ccc(OC2CCNCC2)cc1 [CBK003920T] | 88.7 | 

Row | SMILES | viability at 28.5 h, 10 µM (% viability) [%] | also measured
25 | CC(C)(C)OC(=O)N1CCC(CNS(C)(=O)=O)CC1 [CBK003925] | 78 | 
26 | O=S(=O)(Nc1cccc(C(F)(F)F)c1)c1ccc(N2CCCNCC2)c2ccccc12 [CBK003929C] | 86.4 | 
27 | O=S(=O)(Nc1ccccc1OC(F)(F)F)c1ccc(N2CCNCC2)c2ccccc12 [CBK003933C] | 92.8 | 
28 | O=S(=O)(Nc1cccc(OC(F)(F)F)c1)c1ccc(N2CCNCC2)c2ccccc12 [CBK003935C] | 111 | 
29 | FC(F)(F)c1ccc(N2CCNCC2)nc1SCc1ccccc1Cl [CBK003964A] | 98.2 | 
30 | FC(F)(F)c1ccc(N2CCNCC2)nc1OCc1ccc2c(c1)OCCO2 [CBK003994A] | 113 | 
31 | O=C(Nc1cc(N2CCNCC2)ncn1)c1ccccc1 [CBK004215T] | 94.3 | 
32 | COc1ccc(CCC(=O)Nc2cc(N3CCNCC3)ncn2)cc1 [CBK004231T] | 92.1 | 
33 | O=C(Nc1ccccn1)C1CCCN1c1nc(O)cc(C(F)(F)F)n1 (stereo not shown) [CBK004254] | 91 | 
34 | CCNC(=S)N[C@H]1CC[C@@]2(Cc3ccc(OC)cc3)CCN(C)[C@H]2C1 [CBK004257] | 101 | 
35 | CCCCNC(=S)N[C@H]1CC[C@@]2(Cc3ccc(OC)cc3)CCN(C)[C@H]2C1 [CBK004258] | 108 | 
36 | COc1ccc(C[C@@]23CC[C@@H](NC(=S)NCc4ccccc4)C[C@@H]2N(C)CC3)cc1 [CBK004262] | 88.4 | 
37 | O=C(NCc1cccs1)C1CCCN1c1nc(O)cc(C(F)(F)F)n1 (stereo not shown) [CBK004299] | 91.3 | 
38 | O=C(Nc1nccc(N2CCNCC2)n1)C1CCCC1 [CBK004302T] | 113 | 
39 | O=C(Nc1ccccc1F)C1CCCN1c1nc(O)cc(C(F)(F)F)n1 (stereo not shown) [CBK004307] | 105 | 
40 | CCN(CC)CCOC(=O)c1ccc(N)cc1 [CBK004330C] | 84.5 | 
41 | COC(=O)c1sccc1NS(=O)(=O)c1ccc2ccccc2c1 [CBK004500] | 103 | 
42 | Brc1ccccc1OCCc1ccccc1 [CBK004519] | 95.4 | 
43 | COc1ccc(C2OCCN2C(C)=O)cc1 (stereo not shown) [CBK004536] | 80.8 | 
44 | Cc1c(Cl)cccc1S(=O)(=O)Nc1ccsc1C(=O)O [CBK004549] | 97.7 | 
45 | O=C(O)c1sccc1NS(=O)(=O)Cc1ccccc1 [CBK004561] | 92.3 | 
46 | O=C(Nc1ccc(F)cc1)c1sccc1NS(=O)(=O)Cc1ccccc1 [CBK004574] | 106 | 
47 | O=C(Nc1ccc(F)cc1)c1sccc1NS(=O)(=O)c1cc(F)c(Br)cc1F [CBK004586] | 94.4 | 
48 | COc1ccc(Br)cc1S(=O)(=O)Nc1ccsc1C(=O)Nc1ccc(F)cc1 [CBK004593] | 97.7 | 

Row | SMILES | viability at 28.5 h, 10 µM (% viability) [%] | also measured
49 | CCN(CC)C(=O)c1sccc1NS(=O)(=O)c1ccc(OC)c(OC)c1 [CBK004596] | 94.3 | 
50 | CCN(CC)C(=O)c1sccc1NS(=O)(=O)c1cc(Br)c(Cl)s1 [CBK004599] | 98.3 | 
51 | Cc1noc(C)c1S(=O)(=O)Nc1ccsc1C(=O)Nc1ccc(F)cc1 [CBK004604] | 86.3 | 
52 | COc1ccc(S(=O)(=O)Nc2ccsc2C(=O)N2CCN(C)CC2)cc1OC [CBK004627] | 95.3 | 
53 | CN1CCN(C(=O)c2sccc2NS(=O)(=O)c2ccc3ccccc3c2)CC1 [CBK004631] | 91.7 | 
54 | CCNC(=S)N[C@@H]1CC[C@@]2(c3ccc([N+](=O)[O-])cc3)CCN(CCc3ccccc3)[C@H]2C1 [CBK004677] | 90.5 | 
55 | OCc1cccc2c3c(n(Cc4ccccc4)c12)CCCC3 [CBK004693] | 91.3 | 
56 | CCOC(=O)CNS(=O)(=O)c1cccc(Cl)c1C [CBK004702] | 103 | 
57 | CCOC(=O)c1cnc(NS(=O)(=O)c2cccc(Cl)c2C)nc1C [CBK004707] | 105 | 
58 | O=C(Nc1ccc(N2CCNCC2)nc1)C1CCC1 [CBK004743T] | 86.2 | 
59 | COCCC(=O)Nc1ccc(N2CCNCC2)nc1 [CBK004749T] | 92.2 | 
60 | CC(C(=O)Nc1cccc(N2CCNCC2)c1)c1ccccc1 (stereo not shown) [CBK004770T] | 95.6 | 
61 | CN1CCN(c2nc(Nc3ccc(Cl)cc3)nc(Oc3ccccc3)n2)CC1 [CBK004778] | 107 | 
62 | Cc1ccc2[nH]c3c(c2c1)CCNCC3 [CBK004811] | 98.3 | 
63 | C=CCSc1nnc(OC(=O)N(C)C)n1-c1ccc(Cl)cc1 [CBK004817] |  | viability at 28.5 h, 10 µM: 90.8%
64 | Cc1cc(=O)oc(-c2ccccc2)c1C#N [CBK004842] | 95 | 
65 | CC1CN(C(=O)Nc2ccccc2F)CC(C)O1 (stereo not shown) [CBK004990] | 89.9 | 
66 | CCCCNc1ncncc1-c1ccc(Br)cc1 [CBK005014C] | 88.6 | 
67 | O=C(CCN1CCOCC1)N/N=C\c1cccs1 [CBK005035] | 90.6 | 
68 | CCCCc1ccc(C(N)=O)nc1C(N)=O [CBK005061] | 88.8 | 
69 | CNC1CCCCCC1(O)c1ccccc1 (stereo not shown) [CBK005073] | 99.2 | 
70 | COC(=O)c1nn(C(=O)N(C)C)c(C)c1Br [CBK005077] | 88.5 | 
71 | O=C1NC(=O)C2(CCN(Cc3ccccc3)CC2)N1 [CBK005078] | 86.8 | 
72 | O=C(c1ccccc1Cl)c1cc(Cl)ccc1-n1ccnc1 [CBK005151] | 95.2 | 

Row | SMILES | viability at 28.5 h, 10 µM (% viability) [%] | also measured
73 | CCN(CC)C(=O)C1CCCN(C(=O)Nc2cccc(OC)c2)C1 (stereo not shown) [CBK005159] | 92.9 | 
74 | CCSc1cc(Nc2nc(Cl)cc(SCC)n2)nc(N)n1 [CBK005164] | 92.6 | 
75 | CS(=O)(=O)N1CC2(CCNCC2)c2ccccc21 [CBK005171] | 94.4 | 
76 | Cc1cn(S(=O)(=O)N(C)C)nc1-c1ccccc1 [CBK005210] | 89.9 | 
77 | Clc1ccc(Nc2nnns2)cc1Cl [CBK005211] | 100 | 
78 | O[C@H]1CCC[C@@H]1NCc1ccc(Cl)c(Cl)c1 [CBK005217] | 87 | 
79 | CN(C)C(=O)[C@@]1(O)CCC2(c3ccc(Cl)cc3)CCCN(C)C2C1 (stereo partly shown) [CBK005234] | 92.8 | 
80 | C[C@@H]1[C@H]2Cc3ccc(O)cc3[C@]1(C)CCN2Cc1ccoc1 [CBK005262G] |  | viability at 28.5 h, 10 µM (% viability, bulk resorufin, single well): 103%
81 | CC(=O)Oc1ccc(N2C(=O)CCSC2=S)cc1 [CBK005283] | 89.4 | 
82 | COC(=O)c1ccc(CC(C)C)nc1SC1=NCCCN1 [CBK005294C] | 94.1 | 
83 | CC[C@@H]1C(=O)OC[C@@H]1Cc1cncn1C [CBK005338C] | 85.3 | 
84 | COc1ccc(CCN[C@H]2CCC[C@@H]2O)cc1OC [CBK005354G] | 78.4 | 
85 | CC1(C)OCc2nc(C(O)C(C)(C)C)ccc2O1 (stereo not shown) [CBK005386] | 98.4 | 
86 | Cc1ccc(CNc2cc(C)ccn2)cc1 [CBK005419] | 106 | 
87 | COC(C(=O)N(C)C)C(OC)C(=O)N(C)C (stereo not shown) [CBK005447] | 111 | 
88 | CS(=O)(=O)c1sc(C(=O)O)c2c1C=CCC2 [CBK005513] | 87.3 | 
89 | CC1(C)CC(=O)C=C(SCC(=O)C(C)(C)C)S1 [CBK005523] | 106 | 
90 | CCOC(=O)CS(=O)(=O)Cc1cc(Cl)nc(Cl)c1 [CBK005544] | 109 | 
91 | O=C(NC(=O)N1CCOCC1)c1csnn1 [CBK005561] | 86.4 | 
92 | Nc1c(C(F)(F)F)cc(Cl)nc1Cl [CBK005620] | 95.7 | 
93 | C#CCOc1cccc2oc(CCC)cc(=O)c12 [CBK005628] | 87.6 | 
94 | CCOC(=O)c1sc(Sc2nnc(C(F)(F)F)n2C)c2c1CC(C)(C)CC2=O [CBK005649] | 101 | 
